Test system: K562
Assay: Antiproliferative activity against human K562 cells measured after 3 days by MTS assay
Type: functional, cell-based
Conditions: K562, 72 h

Row | Compound | IC50
1 | O=c1[nH]c2ccccc2n1C1CCN(Cc2ccc(-c3nc4cc5[nH]cnc5cc4nc3-c3ccccc3)cc2)CC1 | 17 µM
2 | CCOC(=O)c1cc(-c2ccccc2)n2c1c(-c1ccc(CN3CCC(c4nc5ccc(F)cc5[nH]4)CC3)cc1)nc1ccccc12 | 7 µM
3 | CCOC(=O)c1cc(-c2ccccc2)n2c1c(-c1ccc(CN3CCC(c4nnc(-c5ccccn5)[nH]4)CC3)cc1)nc1ccccc12 | 12 µM
4 | CCOC(=O)c1cn2c(c(-c3ccc(CN4CCC(c5nc6ccc(F)cc6[nH]5)CC4)cc3)nc3ccccc32)c1-c1ccccc1 | 3 µM
5 | CCOC(=O)c1c(-c2ccccc2)cn2c1c(-c1ccc(CN3CCC(c4nnc(-c5ccccn5)[nH]4)CC3)cc1)nc1ccccc12 | 14 µM
6 | CCOC(=O)c1cc2c(-c3ccc(CN4CCC(c5nc6ccc(F)cc6[nH]5)CC4)cc3)nc3ccccc3n2c1-c1ccccc1 | 3 µM
7 | CCOC(=O)c1cc2c(-c3ccc(CN4CCC(c5nnc(-c6ccccn6)[nH]5)CC4)cc3)nc3ccccc3n2c1-c1ccccc1 | 3.5 µM
8 | CCOC(=O)c1cc2c(-c3ccc(CN4CCC(n5c(=O)[nH]c6ccccc65)CC4)cc3)nc3ccccc3n2c1-c1ccccc1 | 8.5 µM

Test system: not listed separately
Assay: Antiproliferative activity against human U937 cells measured after 3 days by MTS assay
Type: functional, cell-based
Conditions: U-937, 72 h

Row | Compound | IC50
9 | O=c1[nH]c2ccccc2n1C1CCN(Cc2ccc(-c3nc4cc5[nH]cnc5cc4nc3-c3ccccc3)cc2)CC1 | 8 µM
10 | CCOC(=O)c1cc(-c2ccccc2)n2c1c(-c1ccc(CN3CCC(c4nc5ccc(F)cc5[nH]4)CC3)cc1)nc1ccccc12 | 4 µM
11 | CCOC(=O)c1cc(-c2ccccc2)n2c1c(-c1ccc(CN3CCC(c4nnc(-c5ccccn5)[nH]4)CC3)cc1)nc1ccccc12 | 11 µM
12 | CCOC(=O)c1c(-c2ccccc2)cn2c1c(-c1ccc(CN3CCC(c4nnc(-c5ccccn5)[nH]4)CC3)cc1)nc1ccccc12 | 7 µM
13 | CCOC(=O)c1cc2c(-c3ccc(CN4CCC(c5nc6ccc(F)cc6[nH]5)CC4)cc3)nc3ccccc3n2c1-c1ccccc1 | 3 µM
14 | CCOC(=O)c1cc2c(-c3ccc(CN4CCC(c5nnc(-c6ccccn6)[nH]5)CC4)cc3)nc3ccccc3n2c1-c1ccccc1 | 8 µM
15 | CCOC(=O)c1cc2c(-c3ccc(CN4CCC(n5c(=O)[nH]c6ccccc65)CC4)cc3)nc3ccccc3n2c1-c1ccccc1 | > 50 µM

Test system: not listed separately
Assay: Antiproliferative activity against human HL60 cells measured after 3 days by MTS assay
Type: functional, cell-based
Conditions: HL-60, 72 h

Row | Compound | IC50
16 | O=c1[nH]c2ccccc2n1C1CCN(Cc2ccc(-c3nc4cc5[nH]cnc5cc4nc3-c3ccccc3)cc2)CC1 | 5.5 µM
17 | CCOC(=O)c1cc(-c2ccccc2)n2c1c(-c1ccc(CN3CCC(c4nc5ccc(F)cc5[nH]4)CC3)cc1)nc1ccccc12 | 8 µM
18 | CCOC(=O)c1cc(-c2ccccc2)n2c1c(-c1ccc(CN3CCC(c4nnc(-c5ccccn5)[nH]4)CC3)cc1)nc1ccccc12 | 24 µM
19 | CCOC(=O)c1cn2c(c(-c3ccc(CN4CCC(c5nc6ccc(F)cc6[nH]5)CC4)cc3)nc3ccccc32)c1-c1ccccc1 | 10 µM
20 | CCOC(=O)c1c(-c2ccccc2)cn2c1c(-c1ccc(CN3CCC(c4nnc(-c5ccccn5)[nH]4)CC3)cc1)nc1ccccc12 | 12 µM
21 | CCOC(=O)c1cc2c(-c3ccc(CN4CCC(c5nc6ccc(F)cc6[nH]5)CC4)cc3)nc3ccccc3n2c1-c1ccccc1 | 3 µM
22 | CCOC(=O)c1cc2c(-c3ccc(CN4CCC(c5nnc(-c6ccccn6)[nH]5)CC4)cc3)nc3ccccc3n2c1-c1ccccc1 | 7 µM
23 | CCOC(=O)c1cc2c(-c3ccc(CN4CCC(n5c(=O)[nH]c6ccccc65)CC4)cc3)nc3ccccc3n2c1-c1ccccc1 | > 50 µM

Test system: Jurkat
Assay: Antiproliferative activity against human Jurkat cells measured after 3 days by MTS assay
Type: functional, cell-based
Conditions: 72 h

Row | Compound | IC50
24 | O=c1[nH]c2ccccc2n1C1CCN(Cc2ccc(-c3nc4cc5[nH]cnc5cc4nc3-c3ccccc3)cc2)CC1 | 3.5 µM
25 | CCOC(=O)c1cc(-c2ccccc2)n2c1c(-c1ccc(CN3CCC(c4nc5ccc(F)cc5[nH]4)CC3)cc1)nc1ccccc12 | 6 µM
26 | CCOC(=O)c1cc(-c2ccccc2)n2c1c(-c1ccc(CN3CCC(c4nnc(-c5ccccn5)[nH]4)CC3)cc1)nc1ccccc12 | 5 µM
27 | CCOC(=O)c1cn2c(c(-c3ccc(CN4CCC(c5nc6ccc(F)cc6[nH]5)CC4)cc3)nc3ccccc32)c1-c1ccccc1 | 5 µM
28 | CCOC(=O)c1c(-c2ccccc2)cn2c1c(-c1ccc(CN3CCC(c4nnc(-c5ccccn5)[nH]4)CC3)cc1)nc1ccccc12 | 5 µM
29 | CCOC(=O)c1cc2c(-c3ccc(CN4CCC(c5nc6ccc(F)cc6[nH]5)CC4)cc3)nc3ccccc3n2c1-c1ccccc1 | 3.5 µM
30 | CCOC(=O)c1cc2c(-c3ccc(CN4CCC(c5nnc(-c6ccccn6)[nH]5)CC4)cc3)nc3ccccc3n2c1-c1ccccc1 | 3 µM
31 | CCOC(=O)c1cc2c(-c3ccc(CN4CCC(n5c(=O)[nH]c6ccccc65)CC4)cc3)nc3ccccc3n2c1-c1ccccc1 | 6.5 µM

Test system: not listed separately
Assay: Antiproliferative activity against human U266 cells measured after 3 days by MTS assay
Type: functional, cell-based
Conditions: U-266, 72 h

Row | Compound | IC50
32 | CCOC(=O)c1cc(-c2ccccc2)n2c1c(-c1ccc(CN3CCC(c4nc5ccc(F)cc5[nH]4)CC3)cc1)nc1ccccc12 | 4 µM
33 | CCOC(=O)c1cc(-c2ccccc2)n2c1c(-c1ccc(CN3CCC(c4nnc(-c5ccccn5)[nH]4)CC3)cc1)nc1ccccc12 | 8 µM
34 | CCOC(=O)c1cn2c(c(-c3ccc(CN4CCC(c5nc6ccc(F)cc6[nH]5)CC4)cc3)nc3ccccc32)c1-c1ccccc1 | 18 µM
35 | CCOC(=O)c1c(-c2ccccc2)cn2c1c(-c1ccc(CN3CCC(c4nnc(-c5ccccn5)[nH]4)CC3)cc1)nc1ccccc12 | > 50 µM
36 | CCOC(=O)c1cc2c(-c3ccc(CN4CCC(c5nc6ccc(F)cc6[nH]5)CC4)cc3)nc3ccccc3n2c1-c1ccccc1 | 3 µM
37 | CCOC(=O)c1cc2c(-c3ccc(CN4CCC(c5nnc(-c6ccccn6)[nH]5)CC4)cc3)nc3ccccc3n2c1-c1ccccc1 | 3 µM
38 | CCOC(=O)c1cc2c(-c3ccc(CN4CCC(n5c(=O)[nH]c6ccccc65)CC4)cc3)nc3ccccc3n2c1-c1ccccc1 | > 50 µM

Test system: PBMC
Assay: Cytotoxicity against PHA induced human PBMC after 3 days by MTS assay
Type: cell-based
Conditions: 72 h

Row | Compound | IC50
39 | O=c1[nH]c2ccccc2n1C1CCN(Cc2ccc(-c3nc4cc5[nH]cnc5cc4nc3-c3ccccc3)cc2)CC1 | > 50 µM
40 | CCOC(=O)c1cc(-c2ccccc2)n2c1c(-c1ccc(CN3CCC(c4nc5ccc(F)cc5[nH]4)CC3)cc1)nc1ccccc12 | 50 µM
41 | CCOC(=O)c1cc(-c2ccccc2)n2c1c(-c1ccc(CN3CCC(c4nnc(-c5ccccn5)[nH]4)CC3)cc1)nc1ccccc12 | 50 µM
42 | CCOC(=O)c1cn2c(c(-c3ccc(CN4CCC(c5nc6ccc(F)cc6[nH]5)CC4)cc3)nc3ccccc32)c1-c1ccccc1 | > 50 µM
43 | CCOC(=O)c1c(-c2ccccc2)cn2c1c(-c1ccc(CN3CCC(c4nnc(-c5ccccn5)[nH]4)CC3)cc1)nc1ccccc12 | 16 µM
44 | CCOC(=O)c1cc2c(-c3ccc(CN4CCC(c5nc6ccc(F)cc6[nH]5)CC4)cc3)nc3ccccc3n2c1-c1ccccc1 | 13 µM
45 | CCOC(=O)c1cc2c(-c3ccc(CN4CCC(c5nnc(-c6ccccn6)[nH]5)CC4)cc3)nc3ccccc3n2c1-c1ccccc1 | 12 µM
46 | CCOC(=O)c1cc2c(-c3ccc(CN4CCC(n5c(=O)[nH]c6ccccc65)CC4)cc3)nc3ccccc3n2c1-c1ccccc1 | > 50 µM

Test system: not listed separately
Assay: Selectivity index, ratio of IC50 for human PBMC to IC50 for human K562 cells
Conditions: not given

Row | Compound | Ratio IC50
47 | CCOC(=O)c1cn2c(c(-c3ccc(CN4CCC(c5nc6ccc(F)cc6[nH]5)CC4)cc3)nc3ccccc32)c1-c1ccccc1 | >16.7

Test system: not listed separately
Assay: Selectivity index, ratio of IC50 for human PBMC to IC50 for human U937 cells
Parameters: species or system U-937
Conditions: not given

Row | Compound | Ratio IC50
48 | CCOC(=O)c1cc(-c2ccccc2)n2c1c(-c1ccc(CN3CCC(c4nc5ccc(F)cc5[nH]4)CC3)cc1)nc1ccccc12 | 12.5

Test system: not listed separately
Assay: Selectivity index, ratio of IC50 for human PBMC to IC50 for human U266 cells
Parameters: species or system U-266
Conditions: not given

Row | Compound | Ratio IC50
49 | CCOC(=O)c1cc(-c2ccccc2)n2c1c(-c1ccc(CN3CCC(c4nc5ccc(F)cc5[nH]4)CC3)cc1)nc1ccccc12 | 12.5

Test system: K562
Assay: Induction of apoptosis in human K562 cells at 10 uM measured on day 3 by APC-Annexin-V staining based flow cytometry
Type: functional
Conditions: not given

Row | Compound | Activity
50 | CCOC(=O)c1cn2c(c(-c3ccc(CN4CCC(c5nc6ccc(F)cc6[nH]5)CC4)cc3)nc3ccccc32)c1-c1ccccc1 | 92%

Source: ChEMBL document CHEMBL3779812, “Synthesis and evaluation of the cytotoxic activity of novel ethyl 4-[4-(4-substitutedpiperidin-1-yl)]benzyl-phenylpyrrolo[1,2-a]quinoxaline-carboxylate derivatives in myeloid and lymphoid leukemia cell lines” (Eur J Med Chem, 2016)
